The numbers were not newly measured in patent publication US20230405017A1, “METHODS OF USING RHO KINASE INHIBITORS TO TREAT FRONTOTEMPORAL DEMENTIA” (Woolsey Pharmaceuticals, Inc., priority 2020, published 2023), which cites them from elsewhere.

The conditions of this series: in vivo; 1-hydroxy (M3) metabolite of fasudil.

Take `O=S(=O)(c1cccc2c(O)nccc12)N1CCCNCC1` [M3]: the half-life result is on record as “about 8 hours”.
